This note sets out measurements from patent publication US20240368150A1 (Hoffmann-La Roche Inc., priority 2021, published 2024).

The test system of assay [1] is primary human T-cells. The assay can be described thus: Proliferation assay after 5 days (CellTiter-Glo, CD3 stimulation; PBS counter screen). Format: cell-based. As to conditions: CD3 stimulation; for Emax: read-out: Emax proliferation (% activation); for pEC50: primary human T-cells, CellTiter-Glo after 5 days, EC50 of fitted sigmoidal curve, read-out: Tcell Proliferation CD3 EC50. In short, it runs like this:
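Luminescent ATP detection (CellTiter-Glo 2.0) quantified cell number 5 days after compounds went onto medium-only plates. Wells showing visible toxicity or precipitate were noted beforehand, and compounds that stimulated unstimulated cells or lowered viability were flagged.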

Assay [2] relates to MV-3 cells. Nature of the assay: T-cell - TCB - MV3 killing assay (MCSP-TCB, RFP object count by Incucyte). Format: cell-based, human.
Assay [3] deals with primary human T-cells.
The mark [4] stands for this setting: Homo sapiens, T-cell, 120 h, 5 days, normalized to reference compound A1 as stimulator control = 100%, DMSO neutral control.
The mark [5] stands for this setting: Homo sapiens, MV-3, 120 h, normalized: MCSP-TCB only = neutral control, 20 μM reference compound A1 = 100%; 5 d; read-out: MSCP TCB killing MV-3 cells 5 d Emax.
Setting [6] is: Homo sapiens, MV-3, 120 h, primary human T-cells + MCSP-TCB, MV-3 RFP cells, 5 d; read-out: MSCP TCB killing MV-3 cells 5 d EC50.
Setting [7] is: primary human T-cells + MCSP-TCB, MV-3 RFP cells, 5 d; read-out: MSCP TCB killing MV-3 cells 5 d EC50.

Structures are written as SMILES. pEC50: −log10 of the molar value. Like-named read-outs stand apart in the source and are kept apart here.

Turning to `CC(C)(C)c1noc(-c2cc3c(cc2F)S(=O)(=O)C[C@H](N)C(=O)N3Cc2ccc(Cl)cc2)n1` [Example 43, (3R)-3-Amino-7-(3-tert-butyl-1,2,4-oxadiazol-5-yl)-5-[(4-chlorophenyl)methyl]-8-fluoro-1,1-dioxo-2,3-dihydro-1λ^6,5-benzothiazepin-4-one], the Emax in assay [1] (setting [4]) was found to be 143%; in assay [2] (setting [5]) it was 102%. Besides, the pEC50 in assay [1] (Homo sapiens, T-cell, 120 h) was 6.58; in assay [2] (setting [6]) it was 7.40; in assay [3], 5.63.

Consider `N[C@H]1CS(=O)(=O)c2cc(F)c(-c3nc(CC(F)(F)F)no3)cc2N(Cc2ccc(Cl)cc2)C1=O` [Example 49, (3R)-3-amino-5-[(4-chlorophenyl)methyl]-8-fluoro-1,1-dioxo-7-[3-(2,2,2-trifluoroethyl)-1,2,4-oxadiazol-5-yl]-2,3-dihydro-1λ^6,5-benzothiazepin-4-one], for which the Emax in assay [1] (setting [4]) came out at 112%; in assay [2] (setting [5]), 100%. The pEC50 in assay [1] (Homo sapiens, T-cell, 120 h) was 6.23; in assay [2] (setting [7]), 6.77; in assay [3], 5.66.

Regarding `CC(C)(C)c1nnc(-c2cc3c(cc2F)S(=O)(=O)C[C@H](N)C(=O)N3Cc2ccc(Cl)cc2)o1` [Example 63, (3R)-3-amino-7-(5-tert-butyl-1,3,4-oxadiazol-2-yl)-5-[(4-chlorophenyl)methyl]-8-fluoro-1,1-dioxo-2,3-dihydro-1λ^6,5-benzothiazepin-4-one], the figures for the Emax in assay [1] (setting [4]) and in assay [2] (setting [5]) were 141% and 93%, respectively. Further, the pEC50 in assay [1] (Homo sapiens, T-cell, 120 h) was 7.31; in assay [2] (setting [6]), 7.70; in assay [3] it was 7.17.

Take `CCc1nnc(-c2cc3c(cc2F)S(=O)(=O)C[C@H](N)C(=O)N3Cc2ccc(Cl)cc2)o1` [Example 72, (3R)-3-Amino-5-[(4-chlorophenyl)methyl]-7-(5-ethyl-1,3,4-oxadiazol-2-yl)-8-fluoro-1,1-dioxo-2,3-dihydro-1λ^6,5-benzothiazepin-4-one]: the Emax in assay [1] (setting [4]) was determined as 124%; in assay [2] (setting [5]), 115%. The pEC50 in assay [1] (Homo sapiens, T-cell, 120 h) is 5.94; in assay [2] (setting [7]), 6.51; in assay [3], 5.49.

In the case of `N[C@H]1CS(=O)(=O)c2cc(F)c(-c3nnc(C4CCCCC4(F)F)o3)cc2N(Cc2ccc(Cl)cc2)C1=O` (stereo partly drawn) [Example 74, (3R)-3-Amino-5-[(4-chlorophenyl)methyl]-7-[5-(2,2-difluorocyclohexyl)-1,3,4-oxadiazol-2-yl]-8-fluoro-1,1-dioxo-2,3-dihydro-1λ^6,5-benzothiazepin-4-one], the values for the Emax in assay [1] (setting [4]) and in assay [2] (setting [5]) were 180% and 97%, respectively. The pEC50 in assay [1] (Homo sapiens, T-cell, 120 h) is 7.31; in assay [2] (setting [7]) it was 7.70; in assay [3], 7.26.

For `N[C@H]1CS(=O)(=O)c2cc(F)c(-c3nnc(C4CCCC(F)(F)C4)o3)cc2N(Cc2ccc(Cl)cc2)C1=O` (stereo partly drawn) [Example 91, (3R)-3-amino-5-[(4-chlorophenyl)methyl]-7-[5-(3,3-difluorocyclohexyl)-1,3,4-oxadiazol-2-yl]-8-fluoro-1,1-dioxo-2,3-dihydro-1λ^6,5-benzothiazepin-4-one], the values for the Emax in assay [1] (setting [4]) and in assay [2] (setting [5]) were 139% and 93%, respectively. Moreover, the pEC50 in assay [1] (Homo sapiens, T-cell, 120 h) was 6.90; in assay [2] (setting [7]) it was 7.70; in assay [3], 7.47.

With `NC(c1nnc(-c2cc3c(cc2F)S(=O)(=O)C[C@H](N)C(=O)N3Cc2ccc(Cl)cc2)o1)C(F)(F)F` (stereo partly drawn) [Example 122, (3R)-3-amino-7-[5-(1-amino-2,2,2-trifluoro-ethyl)-1,3,4-oxadiazol-2-yl]-5-[(4-chlorophenyl)methyl]-8-fluoro-1,1-dioxo-2,3-dihydro-1λ^6,5-benzothiazepin-4-one], the Emax in assay [1] (setting [4]) amounted to 92%; in assay [2] (setting [5]) it was 86%. Also, the pEC50 in assay [1] (Homo sapiens, T-cell, 120 h) is 6.11; in assay [2] (setting [7]), 6.29; in assay [3] it was 6.62.

In the case of `COC(=O)N1CCC(C)(c2nnc(-c3cc4c(cc3F)S(=O)(=O)C[C@H](N)C(=O)N4Cc3ccc(Cl)cc3)o2)CC1` [Example 171, methyl 4-methyl-4-[5-[(3R)-3-amino-5-[(4-chlorophenyl)methyl]-8-fluoro-1,1,4-trioxo-2,3-dihydro-1λ^6,5-benzothiazepin-7-yl]-1,3,4-oxadiazol-2-yl]piperidine-1-carboxylate], the Emax in assay [1] (setting [4]) amounted to 93%; in assay [2] (setting [5]), 100%. In addition, the pEC50 in assay [1] (Homo sapiens, T-cell, 120 h) was 7.26; in assay [2] (setting [7]), 7.40; in assay [3], 7.12.

With `CC(C)(C)c1nnc(-c2cc3c(cc2F)[S+]([O-])C[C@H](N)C(=O)N3Cc2ccc(Cl)cc2)o1` (stereo partly drawn) [Example 186, (3R)-3-amino-7-(5-tert-butyl-1,3,4-oxadiazol-2-yl)-5-[(4-chlorophenyl)methyl]-8-fluoro-1-oxo-2,3-dihydro-1λ^4,5-benzothiazepin-4-one], the Emax in assay [1] (setting [4]) amounted to 94%. For the same compound, the pEC50 in assay [1] is 6.15; in assay [2] (setting [7]), 6.89; in assay [3], 6.80. Besides, the “MSCP TCB killing MV-3 cells 5 d Emax” value in assay [2] (normalized: MCSP-TCB only = neutral control, 20 μM reference compound A1 = 100%; 5 d) is 100%.

Turning to `CC(C)(C)c1nnc(-c2cc3c(cc2F)S(=O)(=O)C[C@H](N)C(=O)N3Cc2ccc(C#N)cc2)o1` [Example 220, 4-[[(3R)-3-amino-7-(5-tert-butyl-1,3,4-oxadiazol-2-yl)-8-fluoro-1,1,4-trioxo-2,3-dihydro-1λ^6,5-benzothiazepin-5-yl]methyl]benzonitrile], the Emax was determined as 102% in assay [1] (setting [4]) and 100% in assay [2] (Homo sapiens, MV-3, 120 h, read-out: MSCP TCB killing MV-3 cells 5 d Emax). For the same compound, the pEC50 in assay [1] (T-cell, 120 h) was 6.25; in assay [2] (read-out: MSCP TCB killing MV-3 cells 5 d EC50; primary human T-cells + MCSP-TCB, MV-3 RFP cells, 5 d) it was 6.41; in assay [3] it was 6.62.

As to `CC(C)(C)c1nnc(-c2cc3c(cc2F)S(=O)(=O)C[C@H](N)C(=O)N3Cc2ccc(OC(F)(F)C(F)F)cc2)o1` [Example 232, (3R)-3-amino-7-(5-tert-butyl-1,3,4-oxadiazol-2-yl)-8-fluoro-1,1-dioxo-5-[[4-(1,1,2,2-tetrafluoroethoxy)phenyl]methyl]-2,3-dihydro-1λ^6,5-benzothiazepin-4-one], the results for the Emax in assay [1] (setting [4]) and in assay [2] (setting [5]) were 127% and 83%, respectively. Moreover, the pEC50 in assay [1] (Homo sapiens, T-cell, 120 h) was 7.24; in assay [2] (setting [7]), 7.52; in assay [3], 7.43.

`CC(C)(C)c1nnc(-c2cc3c(cc2F)S(=O)(=O)C[C@H](N)C(=O)N3Cc2ccc(Cl)nc2)o1` [Example 237, (3R)-3-amino-7-(5-tert-butyl-1,3,4-oxadiazol-2-yl)-5-[(6-chloro-3-pyridyl)methyl]-8-fluoro-1,1-dioxo-2,3-dihydro-1λ^6,5-benzothiazepin-4-one]: the results for the Emax in assay [1] (setting [4]) and in assay [2] (setting [5]) were 106% and 84%, respectively. The pEC50 in assay [1] (Homo sapiens, T-cell, 120 h) was 5.89; in assay [2] (setting [7]), 6.35; in assay [3] it was 6.28.

Take `CC(C)Oc1ccc(CN2C(=O)[C@@H](N)CS(=O)(=O)c3cc(F)c(-c4nnc(C(C)(C)C)o4)cc32)cn1` [Example 249, (3R)-3-amino-7-(5-tert-butyl-1,3,4-oxadiazol-2-yl)-8-fluoro-5-[(6-isopropoxy-3-pyridyl)methyl]-1,1-dioxo-2,3-dihydro-1λ^6,5-benzothiazepin-4-one]: the Emax amounted to 161% in assay [1] (setting [4]) and 100% in assay [2] (setting [5]). The pEC50 is 5.91 in assay [1] (Homo sapiens, T-cell, 120 h); 6.68 in assay [2] (setting [7]); below 5.00 in assay [3].

Regarding `CC(C)Oc1ccc(CN2C(=O)[C@@H](N)CS(=O)(=O)c3cc(F)c(-c4nnc(C(C)(C)C)o4)cc32)cc1` [Example 254, (3R)-3-amino-7-(5-tert-butyl-1,3,4-oxadiazol-2-yl)-8-fluoro-5-[(4-isopropoxyphenyl)methyl]-1,1-dioxo-2,3-dihydro-1λ^6,5-benzothiazepin-4-one], the results for the Emax in assay [1] (setting [4]) and in assay [2] (setting [5]) were 95% and 104%, respectively. In addition, the pEC50 is above 7.82 in assay [1] (Homo sapiens, T-cell, 120 h); 8.00 in assay [2] (setting [7]); 7.23 in assay [3].

Regarding `C[C@H](N)C(=O)N[C@H]1CS(=O)(=O)c2cc(F)c(-c3nnc(C(C)(C)C)o3)cc2N(Cc2ccc(Cl)cc2)C1=O` [Example 262], the Emax in assay [1] (setting [4]) came out at 101%; in assay [2] (setting [5]), 92%. Moreover, the pEC50 in assay [1] (Homo sapiens, T-cell, 120 h) was above 6.79; in assay [2] (setting [7]) it was 7.52; in assay [3] it was above 6.79.

Consider `CC[C@H](NC)C(=O)N[C@H]1CS(=O)(=O)c2cc(F)c(-c3nnc(C(C)(C)C)o3)cc2N(Cc2ccc(Cl)cc2)C1=O` [Example 270, (2S)-2-(methylamino)-N-[(3R)-7-(5-tert-butyl-1,3,4-oxadiazol-2-yl)-5-[(4-chlorophenyl)methyl]-8-fluoro-1,1,4-trioxo-2,3-dihydro-1λ^6,5-benzothiazepin-3-yl]butanamide], for which the “Emax proliferation (% activation)” value in assay [1] (5 days, normalized to reference compound A1 as stimulator control = 100%, DMSO neutral control) came out at 111 % activation. Moreover, the pEC50 in assay [1] was 7.40; in assay [2] (setting [7]), 7.70; in assay [3], 7.24. For the same compound, the Emax in assay [2] (setting [5]) was 81%.
